Assays:
wild type FA19 = test: Antimicrobial susceptibility spot assay with hormone plus azithromycin or polymyxin B, wild type FA19; type: cell-based, Neisseria gonorrhoeae; conditions: for resistance to azithromycin in presence of sub-lethal hormone: wild-type FA19, GC agar, 24 h, visual
Protocol: (§1) Fig. 5 Effect of steroidal hormones on gonococcal antimicrobial susceptibility.
(§2) To determine the minimal inhibitory concentrations (MICs) by the steroidal hormones and their effect on antimicrobial susceptibility, 5 x 10^5 CFU and 1:5 serial dilutions of gonococcal strains were spotted on GC agar plates containing different concentrations of antibiotics and/or hormones as indicated. Antimicrobial susceptibility was assessed after 24 h incubation.

[1] = test system: mutant strain JF1 (ΔmtrR); test: Antimicrobial susceptibility spot assay with hormone plus antibiotic, JF1 (ΔmtrR); type: cell-based, Neisseria gonorrhoeae; conditions: derivative lacking MtrR (JF1), azithromycin
Protocol: as §1, §2

FA19 mtrD::kan (KH14) = test system: FA19 mtrD::kan (KH14); parameters: method as in PMID 31744915; conditions: cited from earlier work
lptA-lacZ expression = test: β-galactosidase assay, lptA-lacZ fusion (negative control gene); conditions: WT-lptA-lacZ
ngo1249-lacZ expression = test: β-galactosidase assay, ngo1249-lacZ fusion (negative control gene); conditions: WT-NGO1249-lacZ
MtrR W136A = target: T1, MtrR W136A (Neisseria gonorrhoeae, UniProt P39897, W136A); test: biochemical; type: binding
T1 construct: Hexa-histidine tag with TEV protease cleavage site (N, cleaved yes); made in house; host or cells: E. coli Rosetta Gami B(DE3) pLysS
T1 sequence (P39897 whole entry W136A): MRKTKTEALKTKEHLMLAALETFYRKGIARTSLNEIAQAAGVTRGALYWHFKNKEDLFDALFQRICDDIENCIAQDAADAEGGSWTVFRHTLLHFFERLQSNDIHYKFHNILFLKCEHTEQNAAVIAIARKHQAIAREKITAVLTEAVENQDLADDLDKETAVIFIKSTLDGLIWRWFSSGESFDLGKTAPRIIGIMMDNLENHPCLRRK

Compound | resistance to azithromycin in presence of sub-lethal hormone (wild type FA19) | change in antibiotic resistance in presence of sub-lethal hormone [1] | change of MIC by mutations of the mtrD gene (FA19 mtrD::kan (KH14)) | Mean Miller units (lptA-lacZ expression; 0.1 µM hormone) [Miller units] | Mean Miller units (lptA-lacZ expression; 1 µM hormone) [Miller units] | Mean Miller units (lptA-lacZ expression; 10 µM hormone) [Miller units] | Mean Miller units (lptA-lacZ expression; 50 µM hormone) [Miller units] | Mean Miller units (lptA-lacZ expression; 100 µM hormone) [Miller units] | Mean Miller units (ngo1249-lacZ expression; 0.1 µM hormone) [Miller units] | Mean Miller units (ngo1249-lacZ expression; 1 µM hormone) [Miller units] | Mean Miller units (ngo1249-lacZ expression; 10 µM hormone) [Miller units] | Mean Miller units (ngo1249-lacZ expression; 50 µM hormone) [Miller units] | Mean Miller units (ngo1249-lacZ expression; 100 µM hormone) [Miller units] | Kd (MtrR W136A) [µM] | resistance to polymyxin B in presence of hormone (wild type FA19; strain FA19)
CC(=O)[C@H]1CC[C@H]2[C@@H]3CCC4=CC(=O)CC[C@]4(C)[C@H]3CC[C@]12C [Progesterone, progesterone] | elevated levels of resistance | did not show change | significant decrease | 10 | 13 | 13 | 10 | 12 | 5 | 8 | 8 | 6.43 | 6.923 |  | 
C[C@]12CC[C@@H]3c4ccc(O)cc4CC[C@H]3[C@@H]1CC[C@@H]2O [β-Estradiol, β-estradiol] | elevated levels of resistance | did not show change |  | 4.54 | 7 | 4.45 | 6.62 | 6 | 5 | 5 | 5.32 | 4.874 | 4.606 | 1.06 ± 0.04 | increased resistance
C[C@]12CC[C@H]3[C@@H](CCC4=CC(=O)CC[C@@]43C)[C@@H]1CC[C@@H]2O [Testosterone, testosterone] |  |  |  |  |  |  |  |  |  |  |  |  |  | 5.79 ± 1.4 | 
